Source: the supplement of paper PMC10307832

Assays:
Experiment in all cases: relative viability (nuclei count vs DMSO), 5 days (fraction); higher = more cells survive
Darinaparsin + AZD7762 = compound: C[As](C)SC[C@H](NC(=O)CC[C@H](N)C(=O)O)C(=O)NCC(=O)O [Darinaparsin] + NC(=O)Nc1cc(-c2cccc(F)c2)sc1C(=O)N[C@H]1CCCNC1 [AZD7762] (partner 0.2 µM)
Outline: (§1)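 For relative viability, nuclei counts in treated wells were divided by those in vehicle wells. Lung cancer cell lines had been pin-tool dosed in 1536-well plates the day after seeding and cultured for 5 days, then fixed and stained in one step (final 0.05% Triton X-100, 1% formaldehyde, 1 ug/ml Hoechst) and imaged at 4×. Doses were one drug alone or a fixed anchor-drug dose plus five library-drug doses (not always all listed) in √10 steps, and values are duplicate-plate medians.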

AZ628 + Tozasertib = compound: CC1=C(C=C(C=C1)NC(=O)C2=CC(=CC=C2)C(C)(C)C#N)NC3=CC4=C(C=C3)N=CN(C4=O)C [AZ628] + Cc1cc(Nc2cc(N3CCN(C)CC3)nc(Sc3ccc(NC(=O)C4CC4)cc3)n2)n[nH]1 [Tozasertib] (partner 0.1 µM)
Outline: as §1

AZ628 + Luminespib = compound: CC1=C(C=C(C=C1)NC(=O)C2=CC(=CC=C2)C(C)(C)C#N)NC3=CC4=C(C=C3)N=CN(C4=O)C [AZ628] + CCNC(=O)c1noc(-c2cc(C(C)C)c(O)cc2O)c1-c1ccc(CN2CCOCC2)cc1 [Luminespib] (partner 0.01 µM)
Outline: as §1

QS11 + Tozasertib = compound: C1CC2=C(C1)C=C(C=C2)OC3=NC(=C4C(=N3)N(C=N4)CC5=CC=C(C=C5)C6=CC=CC=C6)N[C@@H](CC7=CC=CC=C7)CO [QS11] + Cc1cc(Nc2cc(N3CCN(C)CC3)nc(Sc3ccc(NC(=O)C4CC4)cc3)n2)n[nH]1 [Tozasertib] (partner 0.1 µM)
Outline: as §1

Cell Line	relative viability (Darinaparsin + AZD7762; first compound 0.08 µM)	relative viability (Darinaparsin + AZD7762; first compound 0.8 µM)	relative viability (Darinaparsin + AZD7762; first compound 2.53 µM)	relative viability (Darinaparsin + AZD7762; first compound 8 µM)	relative viability (AZ628 + Tozasertib; first compound 0.08 µM)	relative viability (AZ628 + Tozasertib; first compound 0.253 µM)	relative viability (AZ628 + Tozasertib; first compound 0.8 µM)	relative viability (AZ628 + Tozasertib; first compound 2.53 µM)	relative viability (AZ628 + Tozasertib; first compound 8 µM)	relative viability (AZ628 + Luminespib; first compound 0.08 µM)	relative viability (AZ628 + Luminespib; first compound 0.253 µM)	relative viability (AZ628 + Luminespib; first compound 0.8 µM)	relative viability (AZ628 + Luminespib; first compound 2.53 µM)	relative viability (AZ628 + Luminespib; first compound 8 µM)	relative viability (QS11 + Tozasertib; first compound 0.08 µM)	relative viability (QS11 + Tozasertib; first compound 0.253 µM)	relative viability (QS11 + Tozasertib; first compound 0.8 µM)	relative viability (QS11 + Tozasertib; first compound 2.53 µM)	relative viability (QS11 + Tozasertib; first compound 8 µM)
LXF-289	1.15	1.19	0.931	1.14	0.199	0.213	0.195	0.174	0.155	0.672	0.67	0.681	0.653	0.544	0.159	0.197	0.147	0.213	0.253
NCI-H23	0.226	0.229	0.23	0.247	0.286	0.263	0.323	0.26	0.213	0.201	0.222	0.224	0.216	0.201	0.277	0.413	0.273	0.253	0.266
NCI-H322M	0.585	0.42	0.488	0.518	0.468	0.497	0.459	0.474	0.404	0.924	0.815	0.935	0.79	0.549	0.479	0.479	0.45	0.545	0.64
NCI-H358	0.478	0.581	0.591	0.522	0.123	0.114	0.1	0.117	0.0782	0.285	0.279	0.273	0.311	0.167	0.099	0.106	0.108	0.101	0.109
NCI-H441	1.2	1.08	0.815	1.13	0.647	0.613	0.676	0.556	0.445	0.33	0.342	0.345	0.469	0.241	0.642	0.572	0.582	0.481	0.581
NCI-H460	0.806	0.675	0.534	0.585	0.449	0.186	0.146	0.382	0.053	0.0338	0.033	0.0403	0.0274	0.0264	0.3	0.446		0.0921	0.143
NCI-H522	0.764	0.895	0.809	0.883	0.578	0.547	0.542	0.523	0.57	1.33	1.15	1.16	1.29	0.821	0.494	0.616	0.47	0.627	1.58
NCI-H596	1.23	1.13	0.98	1.25	0.768	0.827	0.956	0.886	0.848	0.931	1.11	1.02	0.984	0.829	0.875	0.879	0.923	0.93	1.13
NCI-H647	0.81	0.572	0.375	0.534	0.293	0.262	0.296	0.269	0.146	0.155	0.132	0.221	0.186	0.186	0.287	0.268	0.291	0.323	0.197
NCI-H650	0.94	0.882	0.941	0.95	0.855	0.713	0.722	0.789	0.446	0.935	0.816	0.909	0.843	0.63	0.65	0.759	0.728	0.641	0.536
NCI-H727	0.556	0.599	0.598	0.581	0.551	0.316	0.32	0.404	0.274	0.343	0.337	0.228	0.277	0.203	0.58	0.602	0.539	0.647	0.511
NCI-H838	1.03	0.963	0.971	1.07	0.27	0.302	0.281	0.288	0.212	0.305	0.318	0.336	0.386	0.246	0.293	0.276	0.232	0.224	0.209
NCI-H1355	0.933	0.72	0.568	0.828	0.548	0.512	0.628	0.495	0.269	0.756	0.716	0.705	0.667	0.646	0.569	0.564	0.425	0.452	0.413
NCI-H1395	0.4	0.411	0.385	0.394	0.814	0.809	0.753	0.742	0.681	0.701	0.763	0.688	0.808	0.686	0.728	0.697	0.748	0.686	0.72
NCI-H1437	1.2	1.2	1.03	1.26	0.402	0.408	0.428	0.418	0.375	1.23	1.06	1.09	1.16	1.14	0.44	0.45	0.398	0.344	0.304
NCI-H1651	0.507	0.43	0.361	0.553	0.726	0.656	0.579	0.653	0.43	0.92	0.825	0.919	0.955	0.61	0.819	0.698	0.678	0.548	0.507
NCI-H1666	0.706	0.897	0.915	0.873	0.605	0.567	0.565	0.551	0.479	0.978	0.882	0.848	0.843	0.829	0.61	0.532	0.515	0.521	0.383
NCI-H1734	0.72	0.529	0.549	0.664	0.258	0.267	0.196	0.243	0.197	0.224	0.19	0.153	0.172	0.142	0.25	0.273	0.28	0.246	0.316
NCI-H1755	0.595	0.428	0.735	0.475	0.595	0.52	0.532	0.525	0.493	0.326	0.446	0.443	0.421	0.278	0.617	0.555	0.454	0.515	0.411
NCI-H1793	0.581	0.553		0.536	0.488	0.335	0.372	0.264	0.18	0.182	0.19	0.202	0.132	0.173	0.305	0.328	0.257	0.32	0.338
NCI-H1915	0.768	0.738	0.674	0.729	0.429	0.412	0.377	0.309	0.206	0.921	0.816	0.73	0.6	0.365	0.472	0.494		0.432	0.374
NCI-H1944	0.469	0.518	0.527	0.427	0.26	0.227	0.235	0.249	0.209	0.651	0.66	0.553	0.546	0.575	0.258	0.274		0.271	0.24
NCI-H1975	0.751	0.684	0.662	0.741	0.794	0.562	0.449	0.453	0.163	0.23	0.304	0.196	0.316	0.228	0.823	1.01	0.585	0.408	0.225
NCI-H1993	0.965	0.723	0.628	0.84	0.613	0.617	0.591	0.602	0.555	0.991	0.683	0.702	0.753	0.613	0.563	0.573	0.605	0.669	0.616
NCI-H2085	0.91	0.934	0.892	1.17	0.754	0.899	0.935	0.743	0.382	0.538	0.41	0.468	0.503	0.33	0.803	0.77	0.479	0.531	0.467
NCI-H2087	1.41	1.45	1.39	1.75	0.251	0.174	0.19	0.204	0.132	0.132	0.155	0.159	0.193	0.152	0.245	0.225		0.243	0.265
NCI-H2126	1.14	1.03	0.917	1.14	0.899	0.815	0.951	0.859	0.866	1	0.902	0.968	0.933	0.97	0.803	0.849	0.817	0.886	0.795
NCI-H2170	0.946	0.916	0.852	1.11	0.823	0.741	0.693	0.852	0.667	0.802	0.725	0.789	0.752	0.731	0.803	0.662	0.671	0.742	0.721
